One data set has as its system MDA-MB-231. The data set is described as follows: Cell adhesion assay on coated 96-well plate, MDA-MB-231. It is filed as cell-based, Human. To be noted: for cell adhesion of MDA-MB-231: coated 96-well plate. The procedure:
(§1) D-MEM High Glucose, D-MEM Low Glucose and 0.5% trypsin/EDTA were purchased from Wako Pure Chemical Industries, Ltd. (Osaka); FBS, penicillin. streptomycin (100×) were purchased from Invitrogen (Thermo Fisher Scientific corporation). Human mammary gland cancer (MDA-MB-231) was purchased from ATCC; Human skin fibroblasts (HDF) were purchased from Cell Applications. MDA-MB-231 was cultured using DMEM High Glucose (10% FBS, 100 Units/ml penicillin, 100 μg/ml streptomycin), and then maintained; and HDF was cultured using DMEM Low Glucose (10% FBS, 100 Units/ml penicillin, 100 μg/ml streptomycin), and then maintained. When used in cell adhesion assay and Western blotting, the cells were treated with 0.05% trypsin/EDTA, and then collected in a 15 ml tube to be subjected to centrifugal treatment at 1,200 rpm for four minutes. After the removal of the supernatant, the cells were suspended with an incubation medium by which the cells were incubated at 37° C. for 20 to 30 min and then recovered. Such cell suspension was used for cell adhesion assay and Western blotting.
(§2) Type I collagen (KOKEN CO., LTD, Tokyo) and BSA (Jackson Immuno Research Laboratories Inc., USA), in an aqueous solution as 30 μg/ml, were added to a 96-well plate (Nunc MicroWell 96-Well Microplates) by an amount of 50 μl/well, followed by drying the sample for two nights. Collagen-like peptides having no Cys residue were prepared as aqueous solutions of 1 to 3 mg/ml, and then heated at 95° C. for 5 min, followed by storing them at 4° C. overnight to form the triple-helical structure. Then, they were diluted to 30 μg/ml, and then added to a 96-well plate in an amount of 50 μl/well followed by drying them for two nights. Collagen-like peptides having Cys residues were dissolved in a degassed 0.05% (v/v) TFA aqueous solution, followed by preparing to a concentration of 300 μg/ml, and then heating the sample at 80° C. for 5 min. […] Further, a mineral oil was layered on the peptide solution, and such peptide solution was then oxidized at room temperature until thiol could no longer be detected by Ellman's test. […]

For the next data set, the system named is HDF. The data set is described as follows: Cell adhesion assay on coated 96-well plate, HDF. It is filed as cell-based, Human. As to conditions: 37° C., 5% CO2, 60 min. The procedure:
as §1, §2

Data set [1] is described as follows: Hydrogel formation judged by holding of a stainless ball. It is filed as physicochemical. To be noted: 1% (w/v) peptide, 10% DMSO, room temperature, up to three days. The procedure:
Degassed water was used to prepare a peptide solution having a concentration of 1.11% (w/v) or 1.66% (w/v), and the solution was then put into a PCR tube. After heating this solution at 80° C. for 5 min using a polymerase chain reaction (PCR) machine (TaKaRa PCR Thermal Cycler, TAKARA BIO INC.), the solution was then left to stand at 4° C. overnight. By adding DMSO and water to this solution, there was prepared a peptide solution having a concentration of 10% DMSO, 0.1 to 1.5% (w/v). The PCR tube was then filled with a mineral oil in a way such that the mineral oil covered the liquid surface, followed by allowing the solution to stand at room temperature for a given period of time to achieve a gel. Then, gel formation was determined by looking at whether a stainless ball could be held by the gel.

Data set [2] in a line: Remaining thiol group (Ellman's reagent) in oxidative polymerization reaction. It is filed as physicochemical. As to conditions: SH amount at 0 hour being 100%; 10% DMSO, peptide 1% (w/v); 74 hours. The procedure: Degassed water was used to prepare a peptide solution having a concentration of 1.11% (w/v), and the solution was then put into a PCR tube. After heating this solution at 80° C. for 5 min, it was then left to sand still at 4° C. overnight. By adding DMSO to this solution, there was prepared a peptide solution having a final concentration of 10% DMSO, peptide 1% (w/v). The PCR tube was then filled with a mineral oil in a way such that the mineral oil covered the surface of the solution. In every measurement, the mineral oil was eliminated from the peptide solution to prepare a peptide solution for oxidation monitoring. Ellman's reagent was prepared in a way such that 9 mg/ml of DTNB was present in 50 mM of a phosphate buffer solution (pH 8.4). 33 mM phosphate buffer solution (pH 8.4) and Ellman's reagent 1.5 mg/ml were left to stand for […], then a light absorbance was then measured after a solution with a final concentration of peptide 0.167 mg/ml. Recorded were changes in absorbance with time, with a moment when DMSO was added being a starting point (0 hour). Since the Ellman's reagent generates 5-mercapto-2-nitrobenzoate (λ max=412 nm, ε=1.55×10^4) depending on the amount of thiol groups (referred to as “SH groups” hereunder) in the peptide, measured was a absorbance at 412 nm. After the measurement, optical path length was compensated by measuring absorbance at 997 nm and 900 nm.

A short description of data set [3]: CD spectrum measurement of triple-helical structure and its thermal stability. It is filed as physicochemical. To be noted: 1 mg/ml in 0.05% TFA/H2O; measured at 4° C., 37° C. and 80° C. The protocol:
The structure of the peptide was confirmed by CD spectrum (circular dichroism spectrometer J-820, JASCO Corporation). A peptide powder was dissolved in a degassed 0.05% TFA/H2O to prepare a solution of 1 mg/ml. After heating at 80° C. for 5 min, the solution was left to stand at 4° C. overnight to cause refolding as a measurement sample. CD spectrum was measured under the conditions of: temperature 4° C., 37° C., 80° C.; cell length 0.05 cm; sensitivity standard (100 mdeg); measurement wavelength 250 to 190 nm; data collection interval 0.2 nm; scanning speed 50 nm/min; response 0.5 sec; band width 1 nm; cumulated number 4. A signal obtained (θobs) was expressed as a residue average molar ellipticity (θmrw). θmrw was calculated by the following formula.
A thermal stability of the triple-helical structure was observed by monitoring θmrw, 225 associated with a change in temperature. The measurement conditions were: 4 to 75° C. or 4 to 90° C.; cell length 0.05 cm; measurement wavelength 225 nm; data collection interval 0.5° C.; temperature gradient 18° C./h; sensitivity standard (100 mdeg); response 2 sec; band width 1 nm. It was determined that the triple-helical structure completely turned into a random coil structure in a region where the signal was linearly diminishing.

The source of these data is patent US10851152B2, “Polymerized peptide and gel having collagen-like structure” (WASEDA UNIVERSITY, priority 2015, dated 2020).

Non-standard residues stand in square brackets, D forms with d. No end group written: not given here. Hyp = O=C(O)[C@@H]1C[C@@H](O)CN1

For “Ac-G(POG)4FOGERG(POG)5-NH2 (GPPGPPGPPGPPGFPGERGPPGPPGPPGPPGPPG; HELM PEPTIDE1{[ac].G.P.[Hyp].G.P.[Hyp].G.P.[Hyp].G.P.[Hyp].G.F.[Hyp].G.E.R.G.P.[Hyp].G.P.[Hyp].G.P.[Hyp].G.P.[Hyp].G.P.[Hyp].G.[am]}$$$$V2.0; SMILES CC(=O)NCC(=O)N1CCC[C@H]1C(=O)N1C[C@H](O)C[C@H]1C(=O)NCC(=O)N1CCC[C@H]1C(=O)N1C[C@H](O)C[C@H]1C(=O)NCC(=O)N1CCC[C@H]1C(=O)N1C[C@H](O)C[C@H]1C(=O)NCC(=O)N1CCC[C@H]1C(=O)N1C[C@H](O)C[C@H]1C(=O)NCC(=O)N[C@@H](Cc1ccccc1)C(=O)N1C[C@H](O)C[C@H]1C(=O)NCC(=O)N[C@@H](CCC(=O)O)C(=O)N[C@@H](CCCNC(=N)N)C(=O)NCC(=O)N1CCC[C@H]1C(=O)N1C[C@H](O)C[C@H]1C(=O)NCC(=O)N1CCC[C@H]1C(=O)N1C[C@H](O)C[C@H]1C(=O)NCC(=O)N1CCC[C@H]1C(=O)N1C[C@H](O)C[C@H]1C(=O)NCC(=O)N1CCC[C@H]1C(=O)N1C[C@H](O)C[C@H]1C(=O)NCC(=O)N1CCC[C@H]1C(=O)N1C[C@H](O)C[C@H]1C(=O)NCC(N)=O) [Soluble GFOGER]”, the “cell adhesion of MDA-MB-231” value with MDA-MB-231 is given as “cell adhesion was not observed”. In addition, the “cell adhesion of HDF” value with HDF is listed as “cellular adhesion was not observed”.

Take “G(POG)4PRGQOGVMGFOG(POG)4-NH2 [Soluble GVMGFO]”: the “cell adhesion of HDF” value in the data set with HDF was “cellular adhesion was not observed”. On the same count and under the same terms, the same measure for “G(POG)7IKGHRGFSGLOG(POG)6-NH2 [Soluble KGHRGF]”: “cellular adhesion was not observed”. As for “YCC(POG)5FOGERG(POG)5CCY (YCCP[Hyp]GP[Hyp]GP[Hyp]GP[Hyp]GP[Hyp]GF[Hyp]GERGP[Hyp]GP[Hyp]GP[Hyp]GP[Hyp]GP[Hyp]GCCY; not fully specified; cysteine pairing not given here) [YCC2-GFOGER]”, the “content of YCC2-GFOGER giving the same level of cell adhesion capability as collagen” value in the data set on MDA-MB-231 (mixed polymerized peptide of YCC2 and YCC2-GFOGER, MDA-MB-231, 180 min) came out at 30%. “YCCGPPOGGOPOGPPOGGOPOGRPOGPPOGGOPOGCCY (YCCGPP[Hyp]GG[Hyp]P[Hyp]GPP[Hyp]GG[Hyp]P[Hyp]GRP[Hyp]GPP[Hyp]GG[Hyp]P[Hyp]GCCY; not fully specified; cysteine pairing not given here) [YCC2-Scr]”: the gel-forming capability result in data set [1] is reported as “did not turn into a gel”. In data set [2], the “ratio of SH amount” value was “approximately 0%”. In addition, in data set [3], the “formation of triple-helical structure (CD spectrum, positive Cotton effect at about 225 nm)” value is reported as “did not form the triple-helical structure”. On to gelatin, for which, in the data set with MDA-MB-231, the “cell adhesion of MDA-MB-231” value is recorded as “Significant cell adhesion was observed”.
